Measurements taken from patent publication US12024531B2, “Immunoproteasome inhibitors” (Principia Biopharma Inc., priority 2017, dated 2024).

Experiments:
Format in all cases: biochemical
[1] = molecular target: immunoproteasome LMP2 subunit (Homo sapiens, UniProt P28065); test: Caliper-based proteasome enzymatic activity assay, LMP2; details: human recombinant immunoproteasome 0.3 nM, FAM peptide substrate 1 μM, rt 2 h
[2] = molecular target: immunoproteasome LMP7/B5i subunit (Homo sapiens, UniProt P28062); test: Caliper-based proteasome enzymatic activity assay, LMP7; details: human recombinant immunoproteasome 0.3 nM, FAM peptide substrate 1 μM, rt 3 h
[3] = molecular target: constitutive proteasome β5c subunit (Homo sapiens, UniProt P28074); test: Caliper-based proteasome enzymatic activity assay, β5c; details: human recombinant constitutive proteasome 0.3 nM, FAM peptide substrate 1 μM, rt 3 h

Row | Compound | IC50 [1] | IC50 [2] | IC50 [3]
1 | CC(C)N(C(=O)C(C#N)=Cc1cccc(CCOC(=O)N[C@@H](Cc2ccccc2)B(O)O)c1)C(C)C (single isomer, unassigned) [Example 74] | 2750 nM | 27.1 nM | > 5000 nM
2 | CC(C)N(C(=O)C(C#N)=Cc1cccc(CCOC(=O)N[C@@H](Cc2ccccc2)B(O)O)c1)C(C)C (single isomer, unassigned) [Example 75] | 2520 nM | 1.4 nM | 3020 nM
3 | CC(C)(C)NC(=O)C(C#N)=Cc1cccc(CC[C@H](NC(=O)c2cnccn2)C(=O)N[C@@H](Cc2ccccc2)B(O)O)c1 [Example 1, ((R)-1-((S)-4-(3-(3-(tert-butylamino)-2-cyano-3-oxoprop-1-en-1-yl)phenyl)-2-(pyrazine-2-carboxamido)butanamido)-2-phenylethyl)boronic Acid] | – | 6 nM | 32 nM
4 | CC(C)(C)NC(=O)C(C#N)=Cc1cccc(CCC(=O)N[C@@H](Cc2ccccc2)B(O)O)c1 [Example 3, (R)-(1-(3-(3-(3-(tert-butylamino)-2-cyano-3-oxoprop-1-en-1-yl)phenyl)propanamido)-2-phenylethyl)boronic Acid] | – | 10 nM | 120 nM
5 | CC(C)(C)NC(=O)C(C#N)=Cc1cccc(CC[C@H](NC(=O)c2cc(Cl)ccc2Cl)C(=O)N[C@@H](Cc2ccccc2)B(O)O)c1 [Example 4, (R)-1-((S)-4-(3-(3-(tert-butylamino)-2-cyano-3-oxoprop-1-enyl)phenyl)-2-(2,5-dichlorobenzamido)butanamido)-2-phenylethylboronic Acid] | 16 nM | 1 nM | 7 nM
6 | CN(C)C(=O)C(C#N)=Cc1cccc(OCCC(=O)N[C@@H](Cc2ccccc2)B(O)O)c1 [Example 5, (R)-1-(3-(3-(2-cyano-3-(dimethylamino)-3-oxoprop-1-enyl)phenoxy)propanamido)-2-phenylethylboronic Acid] | 140 nM | 3 nM | 95 nM
7 | CCN(CC)C(=O)C(C#N)=Cc1cccc(OCCC(=O)N[C@@H](Cc2ccccc2)B(O)O)c1 [Example 7, (R)-1-(3-(3-(2-cyano-3-(diethylamino)-3-oxoprop-1-enyl)phenoxy)propanamido)-2-phenylethylboronic Acid] | 500 nM | 5 nM | 60 nM
8 | CCc1cccc(C[C@H](NC(=O)CCOc2cccc(C=C(C#N)C(=O)NC(C)(C)C)c2)B(O)O)c1 [Example 8, (R)-(1-(3-(3-(3-(tert-butylamino)-2-cyano-3-oxoprop-1-en-1-yl)phenoxy)propanamido)-2-(3-ethylphenyl)ethyl)boronic Acid] | – | 16 nM | 420 nM
9 | N#CC(=Cc1cccc(OCCC(=O)N[C@@H](Cc2ccccc2)B(O)O)c1)C(=O)N1CCOCC1 [Example 9, (R)-1-(3-(3-(2-cyano-3-morpholino-3-oxoprop-1-enyl)phenoxy)propanamido)-2-phenylethylboronic Acid] | 820 nM | 8 nM | 100 nM
10 | N#CC(=Cc1cccc(OCCC(=O)N[C@@H](Cc2ccccc2)B(O)O)c1)C(=O)NC1CCOCC1 [Example 10, (R)-1-(3-(3-(2-cyano-3-oxo-3-(tetrahydro-2H-pyran-4-ylamino)prop-1-enyl)phenoxy)propanamido)-2-phenylethylboronic Acid] | 970 nM | 5 nM | 74 nM
11 | CC(C)NC(=O)C(C#N)=Cc1cccc(OCCC(=O)N[C@@H](Cc2ccccc2)B(O)O)c1 [Example 12, (R)-1-(3-(3-(2-cyano-3-(isopropylamino)-3-oxoprop-1-enyl)phenoxy)propanamido)-2-phenylethylboronic Acid] | – | 4 nM | 100 nM
12 | CC(C)(C)C[C@H](NC(=O)CCOc1cccc(C=C(C#N)C(=O)NC(C)(C)C)c1)B(O)O [Example 13, (R)-1-(3-(3-(3-(tert-butylamino)-2-cyano-3-oxoprop-1-enyl)phenoxy)propanamido)-3,3-dimethylbutylboronic Acid] | – | 149 nM | 3930 nM
13 | CC(C)(C)NC(=O)C(C#N)=Cc1cccc(COC(=O)N[C@@H](Cc2ccccc2)B(O)O)c1 [Example 16, (R)-(1-((((3-(3-(tert-butylamino)-2-cyano-3-oxoprop-1-en-1-yl)benzyl)oxy)carbonyl)amino)-2-phenylethyl)boronic Acid] | 3570 nM | 33 nM | 3680 nM
14 | CC(C)(C)NC(=O)C(C#N)=Cc1ccc(F)c(OCCC(=O)N[C@@H](Cc2ccccc2)B(O)O)c1 [Example 18, (R)-(1-(3-(5-(3-(tert-butylamino)-2-cyano-3-oxoprop-1-en-1-yl)-2-fluorophenoxy)propanamido)-2-phenylethyl)boronic Acid] | – | 15 nM | 85 nM
15 | CCN(C(=O)C(C#N)=Cc1cccc(CCOC(=O)N[C@@H](Cc2coc3ccccc23)B(O)O)c1)C1CCOCC1 [Example 95, (R)-(2-(benzofuran-3-yl)-1-(((3-(2-cyano-3-(ethyl(tetrahydro-2H-pyran-4-yl)amino)-3-oxoprop-1-en-1-yl)phenethoxy)carbonyl)amino)ethyl)boronic Acid] | – | 1.2 nM | 87 nM
16 | CCN(CC)C(=O)C(C#N)=Cc1cccc(CCNC(=O)N[C@@H](Cc2coc3ccccc23)B(O)O)c1 [Example 96, (R)-(2-(benzofuran-3-yl)-1-(3-(3-(2-cyano-3-(diethylamino)-3-oxoprop-1-en-1-yl)phenethyl)ureido)ethyl)boronic Acid] | – | 2.1 nM | 328 nM
17 | CCN(CC)C(=O)C(C#N)=Cc1cc(C#N)cc(CCOC(=O)N[C@@H](Cc2coc3ccccc23)B(O)O)c1 [Example 97, (R)-(2-(benzofuran-3-yl)-1-(((3-cyano-5-(2-cyano-3-(diethylamino)-3-oxoprop-1-en-1-yl)phenethoxy)carbonyl)amino)ethyl)boronic Acid] | – | 0.7 nM | 43 nM
18 | C[C@@H]1COC[C@@H](C)N1C(=O)C(C#N)=Cc1cccc(CCOC(=O)N[C@@H](Cc2coc3ccccc23)B(O)O)c1 [Example 98, ((R)-2-(benzofuran-3-yl)-1-(((3-(2-cyano-3-((3R,5R)-3,5-dimethylmorpholino)-3-oxoprop-1-en-1-yl)phenethoxy)carbonyl)amino)ethyl)boronic Acid] | – | 0.5 nM | 71 nM
19 | N#CC(=Cc1cccc(CCOC(=O)N[C@@H](Cc2ccccc2)B(O)O)c1)n1cncn1 [Example 99, (R)-(1-(((3-(2-cyano-2-(1H-1,2,4-triazol-1-yl)vinyl)phenethoxy)carbonyl)amino)-2-phenylethyl)boronic Acid] | – | 1.5 nM | 1740 nM
20 | CCN(C(=O)C(C#N)=Cc1cccc(CCNC(=O)N[C@@H](Cc2coc3ccccc23)B(O)O)c1)C1CCOCC1 [Example 100, (R)-(2-(benzofuran-3-yl)-1-(3-(3-(2-cyano-3-(ethyl(tetrahydro-2H-pyran-4-yl)amino)-3-oxoprop-1-en-1-yl)phenethyl)ureido)ethyl)boronic Acid] | – | 5.2 nM | 1430 nM
21 | CCN(C(=O)C(C#N)=Cc1cc(C#N)cc(CCOC(=O)N[C@@H](Cc2ccccc2)B(O)O)c1)C1CCOCC1 [Example 102, (R)-(1-(((3-cyano-5-(2-cyano-3-(ethyl(tetrahydro-2H-pyran-4-yl)amino)-3-oxoprop-1-en-1-yl)phenethoxy)carbonyl)amino)-2-phenylethyl)boronic Acid] | – | 2.2 nM | 1550 nM
22 | CCN(C(=O)C(C#N)=Cc1cc(C#N)cc(CCOC(=O)N[C@@H](Cc2ccc(C)cc2)B(O)O)c1)C1CCOCC1 [Example 103, (R)-(1-(((3-cyano-5-(2-cyano-3-(ethyl(tetrahydro-2H-pyran-4-yl)amino)-3-oxoprop-1-en-1-yl)phenethoxy)carbonyl)amino)-2-(p-tolyl)ethyl)boronic Acid] | – | 1.4 nM | 460 nM
23 | CCN(CC)C(=O)C(C#N)=Cc1cc(C#N)cc(CCOC(=O)N[C@@H](Cc2ccccc2)B(O)O)c1 [Example 104, (R)-(1-(((3-cyano-5-(2-cyano-3-(diethylamino)-3-oxoprop-1-en-1-yl)phenethoxy)carbonyl)amino)-2-phenylethyl)boronic Acid] | – | 3.3 nM | 2870 nM
24 | CCN(C(=O)C(C#N)=Cc1ccc2c(c1)CN(CC(=O)N[C@@H](Cc1coc3ccccc13)B(O)O)CC2)C1CCOCC1 [Example 105, (R)-(2-(benzofuran-3-yl)-1-(2-(7-(2-cyano-3-(ethyl(tetrahydro-2H-pyran-4-yl)amino)-3-oxoprop-1-en-1-yl)-3,4-dihydroisoquinolin-2(1H)-yl)acetamido)ethyl)boronic Acid] | – | 1.6 nM | 21 nM
25 | N#CC(=Cc1cccc(CCOC(=O)N[C@@H](CCc2ccccc2)B(O)O)c1)n1cncn1 [Example 106, (R)-(1-(((3-(2-cyano-2-(1H-1,2,4-triazol-1-yl)vinyl)phenethoxy)carbonyl)amino)-3-phenylpropyl)boronic Acid] | – | 4.8 nM | > 5000 nM
26 | Cc1ccc(C[C@H](NC(=O)NCCc2cccc(C=C(C#N)n3cncn3)c2)B(O)O)cc1 [Example 107, (R)-(1-(3-(3-(2-cyano-2-(1H-1,2,4-triazol-1-yl)vinyl)phenethyl)ureido)-2-(p-tolyl)ethyl)boronic Acid] | – | 23 nM | > 5000 nM
27 | CCN(CC)C(=O)C(C#N)=Cc1ccc2c(c1)CN(CC(=O)N[C@@H](Cc1ccc(C)cc1)B(O)O)CC2 [Example 108, (R)-(1-(2-(7-(2-cyano-3-(diethylamino)-3-oxoprop-1-en-1-yl)-3,4-dihydroisoquinolin-2(1H)-yl)acetamido)-2-(p-tolyl)ethyl)boronic Acid] | – | 35 nM | > 5000 nM
28 | CCN(CC)C(=O)C(C#N)=Cc1ccc2c(c1)CN(CC(=O)N[C@@H](Cc1ccccc1)B(O)O)CC2 [Example 109, (R)-(1-(2-(7-(2-cyano-3-(diethylamino)-3-oxoprop-1-en-1-yl)-3,4-dihydroisoquinolin-2(1H)-yl)acetamido)-2-phenylethyl)boronic Acid] | – | 7.5 nM | 77 nM
